One assay has as its system MDA-MB-453. The experiment in a line: Cytotoxicity against human MDA-MB-453 cells at 20 uM incubated for 72 hrs by CCK-8 method. The class given is functional, cell-based. For orientation: Tetrazolium assays rely on reduction of a dye to a coloured formazan, in cell work by metabolically active cells.
The test system of assay [1] is SW620/AD300. In words: Reversal of paclitaxel resistance in human SW620/AD300 cells assessed as reduction in paclitaxel IC50 at 20 uM and measured after 72 hrs by CCK-8 method (reference value: 3.4 +/- 0.1 microM). The class given is functional, cell-based. Particulars: SW620/AD300, 72 h.
A further assay has as its system LNCaP C4-2B. The experiment in a line: Cytotoxicity against human LNCaP C4-2B cells at 20 uM incubated for 72 hrs by CCK-8 method. The assay is classed as functional, cell-based.
In a further assay the test system is A549. The experiment in a line: Cytotoxicity against human A549 cells at 20 uM incubated for 72 hrs by CCK-8 method. The assay is classed as functional, cell-based.
For assay [2], the system named is SW620/AD300. The experiment in a line: Cytotoxicity against human SW620/AD300 cells at 20 uM incubated for 72 hrs by CCK-8 method. The class given is functional, cell-based.
For assay [3], the system named is SW620/AD300. In words: Reversal of paclitaxel resistance in human SW620/AD300 cells assessed as reversal fold by measuring ratio of paclitaxel IC50 to paclitaxel IC50 in presence of test compound at 20 uM and measured after 72 hrs by CCK-8 method. The class given is functional.
The subject of assay [4] is SW620/AD300. The experiment in a line: Inhibition of colony formation in human SW620/AD300 cells assessed as decrease in colony count at 20 uM measured after 7 days by crystal violet staining based analysis. The assay is classed as functional, cell-based. Particulars: time 7.0 day.
Assay [5] concerns SW620/AD300. The experiment in a line: Induction of cell cycle analysis in human SW620/AD300 cells assessed as increase in accumulation of cells at G0/G1 phase at 5 to 20 uM measured after 24 hrs by flow cytometry analysis. The assay is classed as functional, cell-based. Particulars: dose 5-20 µM.
In assay [6] the test system is SW620/AD300. The experiment in a line: Induction of cell cycle analysis in human SW620/AD300 cells assessed as increase in accumulation of cells at G2/M phase measured after 24 hrs by flow cytometry analysis. The class given is functional, cell-based. As to conditions: dose 5-20 µM. (A flow cytometer gives signals particle by particle.)
For assay [7], the system named is SW620/AD300. The experiment in a line: Inhibition of colony formation in human SW620/AD300 cells assessed as decrease in colony count at 5 uM measured after 7 days in presence of paclitaxel by crystal violet staining based analysis. The class given is functional, cell-based. Particulars: time 7.0 day.
In assay [8] the test system is SW620/AD300. The experiment in a line: Inhibition of colony formation in human SW620/AD300 cells assessed as decrease in colony count at 20 uM measured after 7 days in presence of paclitaxel by crystal violet staining based analysis. The assay is classed as functional, cell-based. As to conditions: time 7.0 day.
Assay [9] relates to SW620/AD300. The experiment in a line: Inhibition of colony formation in human SW620/AD300 cells assessed as decrease in colony count at 1 uM measured after 7 days by crystal violet staining based analysis. The assay is classed as functional, cell-based. Particulars: time 7.0 day.

The structures appear in SMILES notation. Active and inactive are the calls of the source. No cut-off for these calls is given here.

For the compound `COC(OC)/C1=C/[C@H](O)[C@H]2[C@@H]([C@@H](C)CCC=C(C)C)CC[C@]2(C)C[C@@H]2C(C)=CC(=O)[C@@H]12`, the outcome with MDA-MB-453, in the assay on LNCaP C4-2B, with A549 and in the assay with SW620/AD300 [2] was inactive. Also, the IC50 in the assay on SW620/AD300 [1] stood at 250 nM. Besides, the “Ratio IC50” value with SW620/AD300 [3] is 13.
Consider `CC(C)=CCC[C@H](C)C1=CC[C@]2(C)C[C@@H]3C(C)=CC(=O)[C@H]3/C(CO)=C\C[C@@H]12`, for which the result in the assay on MDA-MB-453, in the assay on LNCaP C4-2B, with A549 and in the assay with SW620/AD300 [2] was inactive. Also, in the assay with SW620/AD300 [1], the IC50 was found to be 50 nM. In addition, the inhibition entry with SW620/AD300 [4] was “inactive”. Also, in the assay on SW620/AD300 [5], the result was Active. Moreover, in the assay with SW620/AD300 [6], the Activity entry is “Dose-Dependent Effect”. Besides, the inhibition result in the assay with SW620/AD300 [7] and with SW620/AD300 [8] was “Active” throughout. Further, the “Ratio IC50” value in the assay on SW620/AD300 [3] is 72.
For the compound `CC(C)=CC(=O)C[C@H](C)[C@H]1CC[C@]2(C)C[C@@H]3C(C)=CC(=O)[C@H]3/C(CO)=C\C[C@@H]12`, the result in the assay on MDA-MB-453, in the assay on LNCaP C4-2B, with A549 and in the assay on SW620/AD300 [2] was inactive. Moreover, the IC50 in the assay on SW620/AD300 [1] amounted to 200 nM. In addition, the “Ratio IC50” value with SW620/AD300 [3] is given as 17.
On to `CC(C)=CCC[C@H](C)C1=CC[C@]2(C)C[C@@H]3C(C)=CC(=O)[C@H]3/C(C=O)=C\C=C\12`, for which the outcome with MDA-MB-453, with LNCaP C4-2B, in the assay with A549 and in the assay on SW620/AD300 [2] was inactive.
For `CC(C)=C/C=C/[C@H](C)[C@H]1CC[C@]2(C)C[C@@H]3C(C)=CC(=O)[C@H]3/C(CO)=C\C[C@@H]12`, the outcome in the assay on MDA-MB-453, in the assay with LNCaP C4-2B, with A549 and in the assay with SW620/AD300 [2] was inactive.
As for `CC(=O)O[C@H]1C(=O)[C@@]2(C)[C@H]([C@H](OC(=O)c3ccccc3)[C@]3(O)C[C@H](OC(=O)[C@H](O)[C@@H](NC(=O)c4ccccc4)c4ccccc4)C(C)=C1C3(C)C)[C@]1(OC(C)=O)CO[C@@H]1C[C@@H]2O`, the inhibition entry with SW620/AD300 [9] was “inactive”.
On to `CC(C)=CCC[C@H](C)[C@H]1CC[C@]2(C)C[C@@H]3C(C)=CC(=O)[C@H]3[C@@H](CO)/C=C\[C@@H]12`, for which the result in the assay with MDA-MB-453, with LNCaP C4-2B, in the assay on A549 and in the assay with SW620/AD300 [2] was inactive.
With `C/C1=C/C[C@H]2[C@@H]([C@@H](C)CC/C=C(\C)CO)CC[C@]2(C)C/C=C(\C)CC[C@@H]1O`, the result in the assay with MDA-MB-453, in the assay with LNCaP C4-2B, in the assay with A549 and in the assay on SW620/AD300 [2] was inactive.
On to `C/C1=C\C[C@@]2(C)CC[C@H]([C@@H](C)CC/C=C(\C)C(=O)O)/C2=C/C[C@@]2(C)O[C@@H]2CC1`, for which the result in the assay on MDA-MB-453, with LNCaP C4-2B, with A549 and with SW620/AD300 [2] was inactive.
In the case of `CC(C)=CCC[C@H](C)[C@H]1CC[C@]2(C)CC3=C(C(=O)C[C@H]3C)/C(CO)=C\C[C@@H]12`, the outcome with MDA-MB-453, in the assay with LNCaP C4-2B, with A549 and in the assay with SW620/AD300 [2] was inactive.
For the compound `C/C(=C\CC[C@](C)(O)[C@H]1CC[C@]2(C)C/C=C(\C)CC/C=C(\C)CC[C@@H]12)CO`, the outcome in the assay with MDA-MB-453, in the assay with LNCaP C4-2B, in the assay with A549 and in the assay with SW620/AD300 [2] was inactive.
As for `CC(C)=CCC[C@H](C)[C@H]1CC[C@]2(C)C[C@@H]3C(CO)=CC(=O)[C@H]3/C(C)=C\C[C@@H]12`, the outcome with MDA-MB-453, in the assay on LNCaP C4-2B, in the assay with A549 and with SW620/AD300 [2] was inactive.
In the case of `CC(C)=CCC[C@H](C)[C@H]1CC[C@]2(C)C[C@@]3(O)[C@H](C)CC(=O)[C@@H]3/C(CO)=C\C[C@@H]12`, the result with MDA-MB-453, in the assay with LNCaP C4-2B, in the assay with A549 and in the assay with SW620/AD300 [2] was inactive. In the assay with SW620/AD300 [1], the IC50 came out at 1000 nM. In addition, in the assay on SW620/AD300 [3], the “Ratio IC50” value is given as 3.
Consider `C/C1=C/C[C@H]2[C@@H]([C@@H](C)CC/C=C(\C)C(=O)O)CC[C@]2(C)C/C=C(\C)CC[C@@H]1O`, for which the outcome in the assay on MDA-MB-453, in the assay with LNCaP C4-2B, with A549 and in the assay with SW620/AD300 [2] was inactive.

In general, IC50 refers to the midpoint of a concentration-inhibition curve.

Values taken from ChEMBL document CHEMBL6071169, “Maydisens, Sesterterpenoids with Anti-MDR Activity from Bipolaris maydis” (J Nat Prod, 2024).
